Test results as given in ChEMBL document CHEMBL3351645, “Design and synthesis of γ-butyrolactone derivatives as potential spermicidal agents” (Bioorg Med Chem Lett, 2014).
The source made the active and inactive calls. The rule behind the calls is not given here.

Legend:
[1] = system: Spermatozoa; assay: Spermicidal activity in human semen assessed as induction of spermatozoa immotility at 0.1% w/v by Sander-Cramer method; format: functional, cell-based
[2] = system: HeLa; assay: Cytotoxicity against human HeLa cells; format: cell-based
[3] = system: Spermatozoa; assay: Spermicidal activity in human semen assessed as induction of spermatozoa immotility by Sander-Cramer method; format: functional
[4] = system: Spermatozoa; assay: Inhibition of free thiols level in human semen derived spermatozoa at 1% incubated for 15 mins by monobromobimane dye based fluorescence microscopy; format: functional, cell-based
[5] = system: Spermatozoa; assay: Spermicidal activity in human semen assessed as induction of spermatozoa immotility at <0.1% w/v by Sander-Cramer method; format: functional

Structure (SMILES): CCN(CC)CCC1(C(=O)/C=C/c2ccc(O)cc2)CCOC1=O (stereo unspecified)
- Activity [1]: inactive

Structure (SMILES): O=C(/C=C/c1ccc(O)cc1)C1(CCN2CCOCC2)CCOC1=O.O=C(O)C(O)C(O)C(=O)O (stereo unspecified)
- IC50 [2]: 961 µg/mL
- MEC [3]: 0.05%
- inhibition [4]: Active
- MEC [5]: 0.05%

Structure (SMILES): CN(C)CCCC1(C(=O)/C=C/c2ccc(O)cc2)CCOC1=O.O=C(O)C(O)C(O)C(=O)O (stereo unspecified)
- IC50 [2]: 661 µg/mL
- MEC [3]: 0.5%
- MEC [5]: 0.5%

Structure (SMILES): CCN(CC)CCC1(C(=O)/C=C/c2ccc(N(C)C)cc2)CCOC1=O (stereo unspecified)
- Activity [1]: inactive

Structure (SMILES): O=C(/C=C/c1ccc(O)cc1)C1(CCN2CCCC2)CCOC1=O (stereo unspecified)
- Activity [1]: inactive

Structure (SMILES): COc1cc(/C=C/C(=O)C2(CCN3CCOCC3)CCOC2=O)ccc1O.O=C(O)C(O)C(O)C(=O)O (stereo unspecified)
- IC50 [2]: 848 µg/mL
- MEC [3]: 0.5%
- MEC [5]: 0.1%

Structure (SMILES): COc1cc(/C=C/C(=O)C2(CCN3CCCC3)CCOC2=O)ccc1O (stereo unspecified)
- Activity [1]: inactive

Structure (SMILES): CCN(CC)CCC1(C(=O)/C=C/c2ccc(O)c(OC)c2)CCOC1=O (stereo unspecified)
- Activity [1]: inactive

Structure (SMILES): CC(=O)C1(CCCN(C)C)CCOC1=O (stereo unspecified)
- MEC [3]: inactive

Structure (SMILES): COc1cc(/C=C/C(=O)C2(CCCN(C)C)CCOC2=O)ccc1O.O=C(O)C(O)C(O)C(=O)O (stereo unspecified)
- IC50 [2]: 269 µg/mL
- MEC [3]: 0.05%
- inhibition [4]: inactive
- MEC [5]: 0.05%

Structure (SMILES): CN(C)c1ccc(/C=C/C(=O)C2(CCN3CCOCC3)CCOC2=O)cc1.O=C(O)C(O)C(O)C(=O)O (stereo unspecified)
- IC50 [2]: 1330 µg/mL
- MEC [3]: 0.5%
- MEC [5]: 0.5%

Structure (SMILES): CC(=O)C1(CCN2CCCC2)CCOC1=O (stereo unspecified)
- MEC [3]: inactive

Structure (SMILES): CCCCCCCCCc1ccc(OCCOCCOCCOCCOCCOCCOCCOCCOCCO)cc1 [NONOXYNOL 9]
- MEC [5]: 0.02%

Structure (SMILES): CCN(CC)CCC1(C(C)=O)CCOC1=O (stereo unspecified)
- MEC [3]: inactive

Structure (SMILES): CN(C)c1ccc(/C=C/C(=O)C2CCOC2=O)cc1 (stereo unspecified)
- Activity [1]: inactive
- MEC [3]: inactive

Structure (SMILES): CN(C)c1ccc(/C=C/C(=O)C2(CCN3CCCC3)CCOC2=O)cc1 (stereo unspecified)
- Activity [1]: inactive

Structure (SMILES): COc1cc(/C=C/C(=O)C2CCOC2=O)ccc1O (stereo unspecified)
- Activity [1]: inactive

Structure (SMILES): CN(C)CCCC1(C(=O)/C=C/c2ccc(N(C)C)cc2)CCOC1=O.O=C(O)C(O)C(O)C(=O)O (stereo unspecified)
- IC50 [2]: 1200 µg/mL
- MEC [3]: 0.5%
- MEC [5]: 0.1%

Structure (SMILES): O=C(/C=C/c1ccc(O)cc1)C1CCOC1=O (stereo unspecified)
- Activity [1]: inactive
- MEC [3]: inactive

Structure (SMILES): CC(=O)C1(CCN2CCOCC2)CCOC1=O (stereo unspecified)
- MEC [3]: inactive
